Test results as given in ChEMBL document CHEMBL5252655, “Discovery of Potent Deuterated Compounds as Potential KRASG12D Inhibitors in Cancer Therapy” (ACS Med Chem Lett, 2023).

Molecular target: SOS1-KRAS (Homo sapiens, UniProt P01116, G12D)
Assay: Inhibition of SOS1/KRAS G12D mutant (unknown origin) protein-protein interaction incubated for 3 hrs by HTRF analysis

Chain of SOS1-KRAS (P01116 whole entry G12D, looked up): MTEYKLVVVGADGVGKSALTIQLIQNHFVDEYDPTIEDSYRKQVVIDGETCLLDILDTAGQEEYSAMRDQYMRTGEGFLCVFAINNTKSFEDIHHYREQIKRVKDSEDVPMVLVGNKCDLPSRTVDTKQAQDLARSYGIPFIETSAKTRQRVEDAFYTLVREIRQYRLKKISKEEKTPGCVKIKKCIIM

Compound	IC50 [nM]
[2H]C([2H])(Oc1nc(N2CC3CCC2CN3)c2cnc(-c3cc(O)cc(Cl)c3C(F)(F)F)c(F)c2n1)C12CCCN1CCC2 (centres undefined)	≤ 50
[2H]C([2H])(Oc1nc2c(c(N3CC4CCC(C3)N4)n1)CCN(c1cc(O)ccc1C(F)(F)F)C2)C12CCCN1CCC2	> 250
[2H]C([2H])(Oc1nc2c(c(N3CC4CCC(C3)N4)n1)CCN(c1cc(O)cc(Cl)c1C(F)(F)F)C2)C12CCCN1CCC2	> 50
[2H]C([2H])(Oc1nc(N2CC3CCC(C2)N3)c2cnc(-c3cc(O)cc(Cl)c3C(F)(F)F)c(F)c2n1)C12CCCN1CCC2	≤ 50
